ChEMBL document CHEMBL4265957, “The development of piperidinones as potent MDM2-P53 protein-protein interaction inhibitors for cancer therapy” (Eur J Med Chem, 2018)

Columns and labels:
[1] = target: E3 ubiquitin-protein ligase Mdm2 (Homo sapiens, UniProt Q00987); test: Inhibition of MDM2 (unknown origin)
SJSA-1 = test: cells; conditions: Homo sapiens

Chain of E3 ubiquitin-protein ligase Mdm2 (Q00987 whole entry): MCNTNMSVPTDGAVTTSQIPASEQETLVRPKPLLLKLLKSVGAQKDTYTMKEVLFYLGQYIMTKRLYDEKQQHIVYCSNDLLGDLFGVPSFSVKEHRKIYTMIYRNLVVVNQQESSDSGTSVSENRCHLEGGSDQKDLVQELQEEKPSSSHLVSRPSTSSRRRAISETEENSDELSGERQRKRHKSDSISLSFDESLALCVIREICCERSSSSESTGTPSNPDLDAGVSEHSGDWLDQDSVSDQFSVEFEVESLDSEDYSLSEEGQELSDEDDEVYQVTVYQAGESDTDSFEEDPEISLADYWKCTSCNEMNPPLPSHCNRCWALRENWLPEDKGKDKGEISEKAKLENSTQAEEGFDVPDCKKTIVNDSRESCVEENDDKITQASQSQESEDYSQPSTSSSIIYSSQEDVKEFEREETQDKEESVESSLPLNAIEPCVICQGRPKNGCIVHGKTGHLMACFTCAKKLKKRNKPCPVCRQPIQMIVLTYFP

Compound | IC50 [1] [nM] | IC50 (SJSA-1) [nM]
Nc1ccn([C@@H]2O[C@H](CO)[C@@H](O)[C@@H]2O)c(=O)n1 [CYTARABINE] | 20 | 
CN(C[C@H](C1CC1)N1C(=O)[C@@](C)(CC(=O)O)C[C@H](c2cccc(Cl)c2)[C@H]1c1ccc(Cl)cc1)S(=O)(=O)C1CC1 |  | 5
CC1(C)CCC2(CC1)N[C@@H](C(=O)N[C@@H]1CC[C@@H](C(N)=O)OC1)[C@H](c1ccnc(Cl)c1F)[C@]21C(=O)Nc2cc(Cl)ccc21 | 5.57 | 
